What was measured:
[1] = test system: ATXN2-luc; assay: ATXN2-luc mRNA by quantitative PCR in H2 cells; type: cell-based, human; settings: 1 and 10 μM, 48 h
Procedure: treated with the indicated doses of DMAG for 48 hours, then ATXN2-luc mRNA abundance was
determined by quantitative PCR using primers that amplify the luciferase gene.

[2] = test system: endogenous nonmutant ATXN2 protein; assay: Western blotting of endogenous ATXN2 protein in HEK-293 cells; type: cell-based, human
From the text: (§2) To characterize a bioavailable HSP90 inhibitor, we proceeded by using 17-dimethylaminoethylamino-17-demethoxygeldanamycin (17-DMAG, also known as alvespimycin) for inhibition of ATXN2 in cultured cells instead of the original compounds identified in the screen.
Experiments were repeated three times; values are means and SD.

[3] = test system: mutant ATXN2-Q58 protein; assay: Western blotting in HEK-293 ATXN2-Q58 KI cells; type: cell-based, human; settings: 24 h
Procedure: as §2
Figure 4 Reduction of ATXN2 expression by 17-DMAG restores autophagy and ER stress phenotypes in ATXN2 mutant cells.A, ATXN2-Q58 HEK-293 cells were treated with 17-DMAG at the indicated doses for 24 h, and then proteins were evaluated by Western blotting. Untreated HEK-293 cells with normal A P-eIF2α TXN2 were also included. […] B, quantification of the blots in A. The n number of blots ranged from 3 to 9. Values are means and SD. Probabilities are from one-way ANOVA and post hoc Bonferroni-corrected t tests: ns; ∗p < 0.05; ∗∗p < 0.01, and ∗∗∗p < 0.001.

[4] = test system: endogenous ATXN2; assay: Endogenous ATXN2 mRNA by qPCR in HEK-293 cells; type: cell-based; settings: Homo sapiens, HEK293; HEK-293 cells; read-out: IC50, endogenous ATXN2 transcription by qPCR
[5] = test system: BAC ATXN2-Q22 mice; assay: Survival / tolerability of treated BAC ATXN2-Q22 mice; type: in vivo, mouse
From the text: Our study identified 11 compounds known to inhibit HSP90, including one that was identified in our original pilot screen. […] 17-DMAG inhibited transcription of ATXN2 in HEK-293 cells in a dose-dependent manner and reduced the abundance of endogenous and mutant ATXN2 proteins in HEK-293 cells (Figs. 3 and 4). […] Toxicity was evident in our in vivo experiment as well. […] However, like for 17-DMAG, BAC ATXN2-Q22 mice treated with HSP990 had 80% reduced ATXN2 protein abundance in the cerebellum (Fig. 5B).
(§1) Control-treated mice included vehicle alone.

[6] = test system: HSP90; assay: HSP90 target engagement: HSP70 abundance by Western blotting in HEK-293 cells; type: cell-based, human
[7] = design: method as in PMID 24471734, PMID 15791458; settings: ref [39], [40]; cited from earlier work
[8] = test system: ATXN2 protein; assay: Cerebellar ATXN2 protein by Western blotting in BAC ATXN2-Q22 mice; type: in vivo, mouse
From the text: Figure 5 Effect of HSP90 inhibitors on ATXN2 cerebellar expression in vivo in BAC ATXN2-Q22 mice. Inhibition of ATXN2 expression by 17-DMAG (A) and HSP990 (B) versus vehicle controls. Mouse ID numbers are shown above the lanes. Western blot analysis showing upregulation of HSP70 expression following 17-DMAG treatment, which indicates successful HSP90 target engagement. The human transgenic ATXN2 protein is indicated as ATXN2-Q22 and the endogenous mouse protein as mATXN2. Values shown are mean and SD. Probabilities are from Student’s t tests: ∗p < 0.05; ∗∗∗p < 0.001. Three blots were quantified. ATXN2, ataxin-2; BAC, bacterial artificial chromosome; 17-DMAG, 17-dimethylaminoethylamino-17-demethoxygeldanamycin; HSP, heat shock protein.
as §1
Proteins were prepared, separated on precast polyacrylamide gels (Bio-Rad), transferred to Hybond (Amersham), and detected by enhanced chemiluminescence (Amersham) as previously described ([12], [27]). […]

[9] = test system: ATXN2-luc; assay: ATXN2-luc luciferase dose-response in H2 cells, 48 h; type: cell-based; settings: Homo sapiens, H2 cells, read-out: IC50 for lowering ATXN2-luc
[10] = test system: ATXN2 mRNA; assay: Cerebellar ATXN2 mRNA by qPCR in BAC ATXN2-Q22 mice; settings: 4 mg/kg intraperitoneal, every other day over 10 days
[11] = design: method as in PMID 25625276; settings: ref [41]; cited from earlier work
[12] = 100 mg/kg intraperitoneal, every other day over 16 days

| Compound | ATXN2-luc transcription (mRNA by qPCR) [1] | ATXN2-luc transcription (mRNA by qPCR) ([1]; listed as DMAG) | Abundance of endogenous nonmutant ATXN2 protein [2] | Mutant ATXN2 protein abundance [3] | IC50 [4] [µM] | Tolerability in mice [5, 12] | HSP70 abundance [6] | Oral bioavailability and blood–brain barrier crossing [7] | Reduction of ATXN2 protein in the cerebellum [8, 12] [%] | IC50 [9] [µM] | Survival of treated mice ([5]; 4 mg/kg intraperitoneal, every other day over 10 days, n = 4) | Reduced ATXN2 mRNA abundance in cerebella [10] [%] | ATXN2 mRNA abundance in cerebella ([10]; […]) [%] | Toxicity in clinical trial [11] | Reduced ATXN2 protein abundance in the cerebellum ([8]; 4 mg/kg intraperitoneal, every other day over 10 days) [%] |
| --- | --- | --- | --- | --- | --- | --- | --- | --- | --- | --- | --- | --- | --- | --- | --- |
| CO[C@H]1/C=C\C=C(/C)C(=O)NC2=CC(=O)C(NCCN(C)C)=C(C[C@@H](C)C[C@H](OC)[C@H](O)[C@@H](C)/C=C(\C)[C@@H]1OC(N)=O)C2=O [17-DMAG, 17-dimethylaminoethylamino-17-demethoxygeldanamycin] | reduction of ATXN2-luc transcription | reduces transcription of ATXN2-luc | reduced the abundance of endogenous nonmutant ATXN2 protein | significantly reduced mutant ATXN2 protein | 0.759 | well tolerated | significantly increased HSP70 abundance | orally bioavailable and able to cross the blood–brain barrier | 90 | 0.093 |  |  |  |  |  |
| COc1cccc(-c2cc(F)ccc2[C@H]2Cc3nc(N)nc(C)c3C(=O)N2)n1 [HSP990] |  |  |  |  |  |  |  |  |  |  | half of the mice we treated with HSP990 did not survive treatment | 20 | 78.54 ± 3.9 | dose-limiting neurotoxicity | 80 |

Source: publication PMC9356275, “A quantitative high-throughput screen identifies compounds that lower expression of the SCA2-and ALS-associated gene ATXN2” (The Journal of Biological Chemistry, 2022)
